Results from US6114517A, “Methods of modulating tumor necrosis factor α-induced expression of cell adhesion molecules” (Isis Pharmaceuticals Inc., priority 1998, dated 2000).

Columns and labels:
Format in all cases: cell-based, human
E-selectin = experiment: TNF-α-induced E-selectin cell surface expression in HMVEC, flow cytometry; details: for time of maximal inhibition of E-selectin induction: following antisense treatment
Experimental: (§1) Human dermal microvascular cells (HMVEC-d; Clonetics, San Diego, Calif.) were cultivated in endothelial basal media (EBM, Clonetics) supplemented with 10% fetal bovine serum (HyClone, Logan, Utah). Cells were grown in 100 mm petri dishes until 70-80% confluent, then washed with PBS and OPTI-MEM (Life Technologies, Inc., Gaithersburg, Md.). The cells were then incubated in the presence of OPTI-MEM and […] LIPOFECTIN (a 1:1 (w/w) liposome formulation of the cationic lipid N-[1-(2,3-dioleyloxy)propyl]-n,n,n-trimethylammonium chloride (DOTMA), and dioleoyl phosphotidylethanolamine (DOPE) in membrane filtered water (Life Technologies, Gaithersburg, Md.), per 100 nM of oligonucleotide followed by addition of oligonucleotide at the appropriate concentrations.
(§2) The effect of c-raf and Ha-ras antisense oligonucleotide treatment on the induction of E-selectin by TNF-α was examined. HMVEC cells were treated with either the c-raf or Ha-ras antisense compound under dose-response conditions or over time at a single dose level followed by stimulation of E-selectin expression by TNF-α for 5 hours. The cell surface expression of E-selectin was determined by flow cytometry analysis. Following oligonucleotide treatment, cells were detached from the plates and analyzed for surface expression of cell adhesion molecules using a Becton Dickinson (San Jose, Calif.) FACScan. TNF-α and FITC conjugated antibody for E-selectin were obtained from R & D Systems (Minneapolis, Minn.). PE-conjugated antibody for ICAM-1 was obtained from Pharmingen (San Diego, Calif.). VCAM-1 antibody was obtained from Santa Cruz Biotechnology, Santa Cruz, Calif. Cell surface expression was calculated using the mean value of fluorescence intensity using 3,000-5,000 cells stained with the appropriate antibody for each sample and time point. Results are expressed as percentage of control (cell surface expression induced by TNF-α in cells that were not treated with oligonucleotides) based upon mean fluorescence intensity.
The effects of c-raf, Ha-ras, and a E-selectin antisense oligonucleotide on TNF-α-induced E-selectin cell surface expression under kinetic conditions were examined. […] To test this, cells were treated, separately, with antisense oligonucleotides to E-selectin, ICAM-1 and VCAM-1 and allowed to recover prior to TNF-α treatment. […] E-selectin cell surface expression was measured by flow cytometry analysis after 5 hours of TNF-A treatment.

E-selectin mRNA = experiment: TNF-α-induced E-selectin mRNA, Northern blot; details: 48 hrs recovery, TNF-α two to three hours before RNA analysis
Experimental: (§3) For determination of mRNA levels by Northern blot, total RNA was prepared from cells by the guanidinium isothiocyanate procedure or by the Qiagen RNAEASY method (Qiagen, Santa Clarita, Calif.) at the indicated times after initiation of oligonucleotide treatment. Northern blot analysis was performed as described in Current Protocols in Molecular Biology (Ausubel, F. M., et al., (eds), 1987, Greene Publishing Assoc. and Wiley Interscience, New York). A glyceraldehyde 3-phosphate dehydrogenase (G3PDH) probe was purchased from Clontech (Palo Alto, Calif., Catalog Number 9805-1). RNA was quantified and normalized to G3PDH mRNA levels using a Molecular Dynamic PHOSPHORIMAGER (Sunnyvale, Calif.).
(§4) Northern blot analysis was carried out to examine whether c-raf and Ha-ras antisense oligonucleotides inhibit the induction of cell adhesion molecules at the transcriptional level. Cells were treated with c-raf (ISIS 12854, SEQ ID NO. 2) or Ha-ras (ISIS 15168, SEQ ID NO. 4) antisense oligonucleotides and allowed to recover for 48 hrs. TNF-α was added two to three hours prior to RNA analysis and Northern blotting was performed with probes specific for E-selectin, ICAM-1, and VCAM-1. The probe for E-selectin was obtained by PCR amplification using primers directed to HUMELAM1A (Genbank Accession No. M24736; SEQ ID NO. 18).

VCAM-1 = experiment: TNF-α-induced VCAM-1 cell surface expression in HMVEC, flow cytometry; details: for Maximum inhibition of induction of VCAM-1 by TNF-α: dose response
Experimental: as §1
as §2, with “intensity. Basal expression of E-selectin and VCAM-1 is undetectable in the absence of TNF-α whereas a low level of basal expression is detectable for ICAM-1.” for “intensity.”
(§5) TNF-α induction of ICAM-1 and VCAM-1 in cells treated with c-raf and Ha-ras antisense oligonucleotides was also examined to further define the roles of c-raf and Ha-ras in cytokine signaling. Oligonucleotides were tested, using flow cytometry analysis, as described in Example 4. Results are shown in Table 6 (ICAM-1) and Table 7 (VCAM-1).

ICAM-1 mRNA = experiment: TNF-α-induced ICAM-1 mRNA, Northern blot; details: 48 hrs recovery, TNF-α two to three hours before RNA analysis
Experimental: as §3, §4

VCAM-1 mRNA = experiment: TNF-α-induced VCAM-1 mRNA, Northern blot; details: 48 hrs recovery, TNF-α two to three hours before RNA analysis
Experimental: as §3, §4

ICAM-1 = experiment: TNF-α-induced ICAM-1 cell surface expression in HMVEC, flow cytometry; details: for maximal inhibition of induction of ICAM-1 by TNF-α: dose response
Experimental: as §1
as §2, with “intensity. Basal expression of E-selectin and VCAM-1 is undetectable in the absence of TNF-α whereas a low level of basal expression is detectable for ICAM-1.” for “intensity.”
as §5

[1] = 25 nM, TNF-α for 5 hours, % of control
[2] = 75 nM, TNF-α for 5 hours, % of control
[3] = 150 nM, TNF-α for 5 hours, % of control
[4] = time course, 12 h/20 h after oligonucleotide treatment, TNF-α 5 hours
[5] = time course, 48 h after oligonucleotide treatment, TNF-α 5 hours
[6] = time course, 72 h after oligonucleotide treatment, TNF-α 5 hours

| Substance | % Cell Surface Expression (E-selectin) (E-selectin; [1]) [%] | % Cell Surface Expression (E-selectin) (E-selectin; [2]) [%] | % Cell Surface Expression (E-selectin) (E-selectin; [3]) [%] | % Cell Surface Expression (E-selectin) (E-selectin; [4]) [%] | % Cell Surface Expression (E-selectin) (E-selectin; [5]) [%] | % Cell Surface Expression (E-selectin) (E-selectin; [6]) [%] | % mRNA Expression (E-selectin) (E-selectin mRNA) [%] | % mRNA Inhibition (E-selectin) (E-selectin mRNA) [%] | % Cell Surface Expression (VCAM-1) (VCAM-1; 20 nM) [%] | % Cell Surface Expression (VCAM-1) (VCAM-1; 50 nM) [%] | % Cell Surface Inhibition (VCAM-1) (VCAM-1; 50 nM) [%] | % Cell Surface Expression (VCAM-1) (VCAM-1; 100 nM) [%] | % Cell Surface Inhibition (VCAM-1) (VCAM-1; 100 nM) [%] | % mRNA Expression (ICAM-1) (ICAM-1 mRNA) [%] | % mRNA Expression (VCAM-1) (VCAM-1 mRNA) [%] | % Cell Surface Expression (ICAM-1) (ICAM-1; 20 nM) [%] | % Cell Surface Expression (ICAM-1) (ICAM-1; 50 nM) [%] | % Cell Surface Expression (ICAM-1) (ICAM-1; 100 nM) [%] | % Cell Surface Inhibition (ICAM-1) (ICAM-1; 100 nM) [%] | % Cell Surface Inhibition (E-selectin) (E-selectin; 25 nM, TNF-α for 5 hours) [%] | other results |
| --- | --- | --- | --- | --- | --- | --- | --- | --- | --- | --- | --- | --- | --- | --- | --- | --- | --- | --- | --- | --- | --- |
| ToCoAsGsTsAsAsTsAsGsCsCsCoCoAoCoAoToGoG [ISIS 17552, reference compound] | 134 | 116 | 116 | 113 | 116 | 111 | 92 | 8 | 111 | 97 | 3 | 85 | 15 | 101 | 111 | 102 | 100 | 98 | 2 | – | effect on E-selectin induction (E-selectin; dose response, HMVEC): little to no effect |
| ToCoCoCoGoCsCsTsGsTsGsAsCsAsToGoCoAoToT [ISIS 12854] | 37 | 26 | 23 | 58 | 23 | 24 | 22 | 78 | 46 | 37 | 63 | 28 | 72 | 78 | 35 | 80 | 62 | 57 | 43 | 63 | % Cell Surface Inhibition (E-selectin) (E-selectin; 75 nM, TNF-α for 5 hours): 74%; % Cell Surface Inhibition (E-selectin) (E-selectin; 150 nM, TNF-α for 5 hours): 77%; Maximal inhibition of E-selectin induction (E-selectin; dose response, HMVEC): approximately 80%; time of maximal inhibition of E-selectin induction (E-selectin): 48 h; % Cell Surface Inhibition (E-selectin) (E-selectin; [4]): 42%; % Cell Surface Inhibition (E-selectin) (E-selectin; [5]): 77%; % Cell Surface Inhibition (E-selectin) (E-selectin; [6]): 76%; % Cell Surface Inhibition (VCAM-1) (VCAM-1; 20 nM): 54%; Maximum inhibition of induction of VCAM-1 by TNF-α (VCAM-1): greater than 70%; % mRNA Inhibition (ICAM-1) (ICAM-1 mRNA): 22%; % mRNA Inhibition (VCAM-1) (VCAM-1 mRNA): 65%; % Cell Surface Inhibition (ICAM-1) (ICAM-1; 20 nM): 20%; % Cell Surface Inhibition (ICAM-1) (ICAM-1; 50 nM): 38%; maximal inhibition of induction of ICAM-1 by TNF-α (ICAM-1): greater than 40% |
| ToCoCsGsTsCsAsTsCsGsCsTsCoCoToCoAoGoGoG [ISIS 15168] | 72 | 47 | 41 | 87 | 42 | 42 | 13 | 87 | 70 | 51 | 49 | 44 | 56 | 73 | 29 | 81 | 62 | 54 | 46 | 28 | % Cell Surface Inhibition (E-selectin) (E-selectin; 75 nM, TNF-α for 5 hours): 53%; % Cell Surface Inhibition (E-selectin) (E-selectin; 150 nM, TNF-α for 5 hours): 59%; Maximal inhibition of E-selectin induction (E-selectin; dose response, HMVEC): ~60%; time of maximal inhibition of E-selectin induction (E-selectin): 48 h; % Cell Surface Inhibition (E-selectin) (E-selectin; [4]): 13%; % Cell Surface Inhibition (E-selectin) (E-selectin; [5]): 58%; % Cell Surface Inhibition (E-selectin) (E-selectin; [6]): 58%; % Cell Surface Inhibition (VCAM-1) (VCAM-1; 20 nM): 30%; Maximum inhibition of induction of VCAM-1 by TNF-α (VCAM-1): greater than 50%; % mRNA Inhibition (ICAM-1) (ICAM-1 mRNA): 27%; % mRNA Inhibition (VCAM-1) (VCAM-1 mRNA): 71%; % Cell Surface Inhibition (ICAM-1) (ICAM-1; 20 nM): 19%; % Cell Surface Inhibition (ICAM-1) (ICAM-1; 50 nM): 38%; maximal inhibition of induction of ICAM-1 by TNF-α (ICAM-1): greater than 40% |
